According to paper PMC4992173, “Divergent synthesis and identification of the cellular targets of deoxyelephantopins” (Nature Communications, 2016):

Key:
[1] = target: T1, Zinc finger protein 346 (ZNF346) (Homo sapiens, UniProt Q9UL40); experiment: SILAC competitive profiling with probe 24c in MCF7 lysates: ZNF346; type: binding; details: 1 h, then 10 µM 24c
T1 construct: 1,522 proteins were enriched from MCF7 cells by 10 μM probe 24c; endogenous in cells; host or cells: MCF7
Excerpt: (§1) In our efforts to determine the direct molecular targets of deoxyelephantopin we first performed a gel-based competitive in situ proteomic profiling assay[41] […] While the greater conformational flexibility of probe 24c could potentially lead to more promiscuous target engagement relatively to deoxyelephantopin, it was favoured based on the fact that an alkyne moiety appended to the rigid scaffold of deoxyelephantopin may hinder some of its interactions. MCF7 cells were pretreated with various concentrations of deoxyelephantopin for 4 h, harvested, lysed and the lysates were treated with the fluorogenic probe 24c-Cy3 (10 μM; Supplementary Fig. 10). […] Furthermore, cells were pretreated with 20 μM concentration of deoxyelephantopin or 24c and the proteomic profiles were compared (Fig. 6b, Supplementary Fig. 11). Multiple bands were detected that were equally competed by both DEP and 24c, thus again confirming that 24c can be used as an acceptable clickable analogue of deoxyelephantopin in pulldown assays. Having established the optimal labelling conditions by SDS–PAGE, we next carried out a mass spectrometry-based competitive profiling assay[42] coupled with the method of stable isotope labelling of amino acids in culture (SILAC)[43]. […]
(§2) visualization were performed as described above. Images were quantified with ImageJ and kinetics values were calculated using GraphPad Prism (V6.03). […]

[2] = target: T2, Protein HGH1 homolog (HGH1) (Homo sapiens, UniProt Q9BTY7); experiment: SILAC competitive profiling with probe 24c in MCF7 lysates: HGH1; type: binding; details: 1 h, then 10 µM 24c
T2 construct: 1,522 proteins were enriched from MCF7 cells by 10 μM probe 24c; endogenous in cells; host or cells: MCF7
T2 sequence (Q9BTY7 whole entry): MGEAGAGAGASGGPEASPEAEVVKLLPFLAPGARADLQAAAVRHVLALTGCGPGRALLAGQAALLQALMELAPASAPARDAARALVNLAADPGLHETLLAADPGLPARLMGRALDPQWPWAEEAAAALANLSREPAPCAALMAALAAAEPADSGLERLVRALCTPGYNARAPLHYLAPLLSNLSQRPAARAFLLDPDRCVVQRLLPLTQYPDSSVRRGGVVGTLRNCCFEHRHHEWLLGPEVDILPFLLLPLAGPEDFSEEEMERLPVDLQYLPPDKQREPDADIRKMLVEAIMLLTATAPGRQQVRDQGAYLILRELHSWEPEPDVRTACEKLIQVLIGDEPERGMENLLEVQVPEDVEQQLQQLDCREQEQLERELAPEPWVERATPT
Excerpt: as §1, §2

[3] = Cell viability in MCF7 cells, compounds at 1 μM for 3 days; type: cell-based; details: human, 1 μM concentration, read-out: cellular viability
Procedure: We began our biological investigations by assaying the cytotoxicity of natural deoxyelephantopin (DEP) and its unnatural analogues in four different cancer cell lines (Fig. 5a, Supplementary Figs 6–8).
Supplementary figure 8: Cell viability measurements in MCF7 cells. All compounds were tested at 1 μM concentration for 3 days (values±SD are shown; n = 3).
Supplementary figure 9: Propidium iodide and DAPI staining of MCF7 cells treated with either DMSO, 10% ethanol (necrosis positive control) or 20 µM DEP for 8 h. Scale bar […]
Biological materials. All materials were purchased from Sigma Aldrich unless otherwise stated. DMEM/High glucose media, phosphate buffered saline (PBS), MEM Non-Essential Amino Acids, Penicillin-Streptomycin (Pen/Strep) and Trypsin-EDTA were obtained from Life Technologies. Protein concentration was determined using the Bradford assay (Bio-Rad).
Cell culture and preparation of lysates. […] Cells were lysed by sonication to form cell lysates and protein concentration was determined using the Bradford […]
’ cells/mL and HeLa: 1 ’ cells/mL) in a 96-well plate and allowed to attach overnight. […] Cells were imaged using a SpectraMax i3 plate reader equipped with a SpectraMax MiniMax imaging cytometer (Molecular Devices). […]
Caspase activity labeling for fluorescence cell imaging. […]

[4] = tested on: tumour growth and metastasis; parameters: method as in PMID 20105176; details: murine orthotopic breast cancer model, compared with paclitaxel; cited from earlier work

T1 sequence (Q9UL40 whole entry): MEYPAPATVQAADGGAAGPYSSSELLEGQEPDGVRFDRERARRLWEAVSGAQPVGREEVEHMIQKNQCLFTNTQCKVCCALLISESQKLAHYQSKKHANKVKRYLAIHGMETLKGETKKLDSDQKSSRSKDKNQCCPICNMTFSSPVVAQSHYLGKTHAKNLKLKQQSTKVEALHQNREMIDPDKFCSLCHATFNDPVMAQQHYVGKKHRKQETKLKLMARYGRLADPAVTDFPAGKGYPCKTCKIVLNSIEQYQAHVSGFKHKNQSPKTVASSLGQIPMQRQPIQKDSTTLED

## C=C(C)C(=O)O[C@H]1CC2=C[C@@H](C/C(C)=C/[C@H]3OC(=O)C(=C)[C@H]13)OC2=O [deoxyelephantopin]
[1]
  SILAC ratio 20 µM Deoxyelephantopin/DMSO with 24c: 0.22
[2]
  SILAC ratio 20 µM Deoxyelephantopin/DMSO with 24c: 0.20
[3]
  viability at 3 days, 1 µM: < 30%
[4]
  suppression of tumour growth and metastasis: more effective than paclitaxel
